Laboratory results: paper PMC9412022, “Integrate thermostabilized fusion protein apocytochrome b 562 RIL and N-glycosylation mutations: A novel approach to heterologous expression of human UDP-glucuronosyltransferase (UGT) 2B7” (Frontiers in Pharmacology, 2022)
Substitutions are numbered along the chain they refer to.

Tests used:
UGT2B7 (N315A)-BRIL = molecular target: T1, UGT2B7 (N315A)-BRIL (Homo sapiens, UniProt P16662, N315A); assay: Surface plasmon resonance binding to purified UGT2B7 (N315A)-BRIL; conditions: SPR, 25°C, Biacore T200, CM7 chip, steady-state affinity model
T1 construct: we selected the full-length UGT2B7 (N315A)-BRIL construct with BRIL covalently attached to the C-terminus of UGT2B7; made in house; host or cells: Spodoptera frugiperda Sf9 insect cells (Bac-to-Bac baculovirus)
T1 sequence (P16662 24-529 N315A): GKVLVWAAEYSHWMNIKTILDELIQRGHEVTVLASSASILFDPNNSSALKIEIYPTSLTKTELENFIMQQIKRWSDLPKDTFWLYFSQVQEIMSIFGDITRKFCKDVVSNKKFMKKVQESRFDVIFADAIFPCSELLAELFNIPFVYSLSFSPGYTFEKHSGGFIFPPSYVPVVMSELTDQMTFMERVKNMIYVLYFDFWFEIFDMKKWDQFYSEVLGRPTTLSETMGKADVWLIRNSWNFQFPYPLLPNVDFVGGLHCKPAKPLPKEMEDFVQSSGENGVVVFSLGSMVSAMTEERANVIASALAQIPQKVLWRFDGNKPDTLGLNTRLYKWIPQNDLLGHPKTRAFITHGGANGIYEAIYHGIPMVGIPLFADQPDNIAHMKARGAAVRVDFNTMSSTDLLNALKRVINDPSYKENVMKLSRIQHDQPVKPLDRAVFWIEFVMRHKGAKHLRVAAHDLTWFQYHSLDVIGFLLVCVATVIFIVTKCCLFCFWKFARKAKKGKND
Experimental: All experiments were performed with a running buffer containing phosphate buffer (pH 7.4), 0.002% LMNG, and 0.0002% CHS to maintain the concentration of detergent above the critical micelle concentration, which is necessary for the formation of micelles and the correct folding of the purified UGT2B7 proteins. About 8,500 response units of 6 × His-tag monoclonal antibody (Proteintech) were directly immobilized on the chip, which were desalted in 10 mM sodium acetate (pH 4.5). Then the purified UGT2B7 proteins flowed over the chip and coupled with the His-tag antibody at about 18,000 RU. And the blank channel was used as the negative control. Substrates or inhibitors solutions flowed over the chip at a flow rate of 30 μl/min and were contacted 120 s. Then, flowed running buffer at the same rate to dissociation 120 s. The obtained affinities data were analyzed with the BIA evaluation software using the steady-state affinity model.

UGT2B7-BRIL = molecular target: T2, UGT2B7-BRIL (Homo sapiens, UniProt P16662); assay: CPM thermostability assay (melting temperature) of UGT2B7-BRIL in the presence of compounds; format: binding; conditions: apo protein Tm […]; for melting temperature (Tm) of UGT2B7-BRIL in the presence of the compound alone: CPM fluorescence, 20-95°C ramp
T2 construct: 10xHis (C); made in house; host or cells: Spodoptera frugiperda Sf9 insect cells (Bac-to-Bac baculovirus)
T2 sequence (P16662 24-529): T1 sequence (P16662 24-529 N315A) with A292N
Experimental: The gain setting was determined at the beginning of the run and the melting temperature (Tm) was calculated from the point of inflection.

purified UGT2B7 proteins = assay: Glucuronidation of zidovudine by purified UGT2B7 proteins in detergent LMNG/CHS; format: in vitro ADME, human; conditions: purified protein in detergent LMNG/CHS, no phospholipid bilayer

Compound	Kd (UGT2B7 (N315A)-BRIL) [µM]	melting temperature (Tm) of UGT2B7-BRIL in the presence of the compound alone (UGT2B7-BRIL) [°C]	melting temperature (Tm) of UGT2B7-BRIL in the presence of both cofactor (UDP) and substrate (UGT2B7-BRIL; substrate + UDP) [°C]	glucuronidation by purified UGT2B7 proteins (purified UGT2B7 proteins)
COc1ccc([C@@H]2CC(=O)c3c(O)cc(O)cc3O2)cc1O [Hesperetin]	49.8	–	–	–
COc1cc2c(c(O)c1OC)-c1c(cc(OC)c(OC)c1OC)C[C@@H](C)[C@@H](C)C2 [Schisanhenol]	17.3	–	–	–
O=c1ccn([C@@H]2O[C@H](COP(=O)([O-])OP(=O)([O-])O)[C@@H](O)[C@H]2O)c(=O)[nH]1.[Na+].[Na+] [UDP, uridine 5′-diphosphate disodium salt]	589	50.9	–	–
Cc1cn([C@H]2C[C@H](N=[N+]=[N-])[C@@H](CO)O2)c(=O)[nH]c1=O [Zidovudine]	–	53.2	61.0	not observed
